Patent US4058601A, “Method for treating alcoholism” (Chugai Seiyaku Kabushiki Kaisha, priority 1974, dated 1977)
“And” between values parts separate entries of the source, which are not always exact repeats. Equal values may be shown once. “Also recorded” adds a separate entry of the source.

Experiments:
Neutral Lipid in Liver = test: Inhibiting action for accumulation of neutral lipid in liver (ethanol-loaded rats); type: in vivo, Sprague Dawley strain male rats
Description: Inhibiting Action for Accumulation of Neutral Lipid in Liver
The Sprague Dawley strain male rats weighing 180±30 g which had been fed rat food commercially available as CLEA CE-2 and prevented from eating food for 16 hours just before the experiment was started were divided into groups of 10 rats each. Each rat was orally administered with disodium uridine-5'-diphosphate (UDP-2Na) as a suspension in corn oil in a dose of 100 mg/kg body weight. Thirty minutes after the administration, each rat was orally administered with ethanol as a 50% aqueous solution in a dose of 6 g/kg. body weight and, 24 hours after the administration, the liver was taken out and an amount of neutral lipid contained therein was determined by the Van Handel and Zilver-Smit method. For control, a glucose aqueous solution having a caloric content equivalent to the same amount of ethanol was used instead of ethanol.

[1] = tested on: rat (behaviour after ethanol); test: Behaviour and righting reflex of rats, UDP-2Na given 30 min before ethanol (Example 2); type: in vivo, Sprague Dawley strain male rats; details: UDP-2Na 100 mg/kg p.o. 30 min before ethanol 6 g/kg
Description: The Sprague Dawley strain male rats weighing 260±30 g which had been fed rat food commercially available as CLEA CE-2 and prevented from eating food for 12 hours just before the experiment were divided into groups each of 10 - 13 members each. Each rat was orally administered disodium uridine-5'-diphosphate (UDP-2Na) in the form of a suspension in corn oil in an amount 100 mg/kg body weight. Thirty minutes after the administration, ethanol as a 50% aqueous solution was orally administered in a dose of 6 g/kg. body weight and then behavior of the rat was observed over 24 hours.

[2] = tested on: rat (behaviour after ethanol); test: Behaviour and righting reflex of rats, UDP-2Na given 30 min after ethanol (Example 3); type: in vivo, Sprague Dawley strain male rats; details: UDP-2Na 100 mg/kg p.o. 30 min after ethanol 6 g/kg
Description: The Sprague Dawley strain male rats weighing 160±30 g which were fed rat food commercially available as CLEA CE-2 and prevented from eating food for 12 hours just before the experiment was started. Each rat was administered with ethanol as a 50% aqueous solution in a dose of 6 g/kg body weight. Thirty minutes after the administration, the rat was orally administered with a suspension of disodium uridine-5'-diphosphate (UDP-2Na) in corn oil in a dose of 100 mg/kg. body weight based on UDP-2Na. The behavior of the rat was observed over 24 hours after the last administration.

[3] = Measurement of alcohol level in blood (alcoholic dehydrogenase method); type: in vivo, Sprague Dawley strain female rats
Description: Measurement of Alcohol Level in Blood
(§1) In this Example, Sprague Dawley strain female rats (weighing 150±20 g) divided into groups of 9 - 12 members each were used.
(§2) After abstention from food overnight each rat was orally administered disodium uridine-5'-diphosphate (UDP-2Na) in the form of a physiological saline solution in a dose of 100 mg/kg. body weight as an effective ingredient and, 30 minutes after the administration, the rat was administered with ethanol in a dose of 6 g/kg body weight. Four hours and thirty minutes after the administration of ethanol, the rat was etherized, and blood was sampled from its heart to determine alcohol level in the blood by a alcoholic dehydrogenase method. For control, a physiological saline solution was used instead of the UDP-2Na solution.

[4] = tested on: rat (behavior after ethanol); test: Behavior of rats in the blood alcohol experiment (Example 4); type: in vivo, Sprague Dawley strain female rats; details: UDP-2Na 100 mg/kg p.o. 30 min before ethanol 6 g/kg; ditto mark (") = normal walking
Description: as §1, §2

Q: Which “% inhibition (neutral lipid accumulation in liver)” value (Neutral Lipid in Liver; UDP-2Na 100 mg/kg p.o. 30 min before ethanol 6 g/kg p.o., 24 h) does the source give for O=c1ccn([C@@H]2O[C@H](COP(=O)([O-])OP(=O)([O-])O)[C@@H](O)[C@H]2O)c(=O)[nH]1.[Na+].[Na+] [UDP . 2Na, disodium uridine-5'-diphosphate] here?
A: 95.7%

Q: What about the “Neutral Lipid in Liver” value (Neutral Lipid in Liver; UDP-2Na 100 mg/kg p.o. in corn oil 30 min before ethanol 6 g/kg p.o., liver taken 24 h after) of the same compound?
A: 12.69 ± 7.85 mg/g

Q: What about the “Behaviour: Deep Sleep” value ([1]; 3 hrs after alcohol) of the same compound?
A: 1 heads

Q: And the “Behaviour: Lying Flat” value ([1]; 3 hrs after alcohol)?
A: 5 heads

Q: And the “Behaviour: Normal Walking” value ([1]; 3 hrs after alcohol)?
A: 7 heads

Q: What about the “Righting Reflex +” value ([1]; 3 hrs after alcohol) of the same compound?
A: 12 heads

Q: And the “Righting Reflex -” value ([1]; 3 hrs after alcohol)?
A: 1 heads

Q: And the “Behaviour: Deep Sleep” value ([1]; 6 hrs after alcohol)?
A: 1 heads

Q: What about the “Behaviour: Lying Flat” value ([1]; 6 hrs after alcohol) of the same compound?
A: 8 heads

Q: And the “Behaviour: Normal Walking” value ([1]; 6 hrs after alcohol)?
A: 4 heads

Q: And the “Righting Reflex +” value ([1]; 6 hrs after alcohol)?
A: 12 heads

Q: What about the “Righting Reflex -” value ([1]; 6 hrs after alcohol) of the same compound?
A: 1 heads

Q: And the “Behaviour: Deep Sleep” value ([1]; 9 hrs after alcohol)?
A: 0 heads

Q: What about the “Behaviour: Lying Flat” value ([1]; 9 hrs after alcohol) of the same compound?
A: 7 heads

Q: What about the “Behaviour: Normal Walking” value ([1]; 9 hrs after alcohol) of the same compound?
A: 6 heads

Q: What about the “Righting Reflex +” value ([1]; 9 hrs after alcohol) of the same compound?
A: 13 heads

Q: What about the “Righting Reflex -” value ([1]; 9 hrs after alcohol) of the same compound?
A: 0 heads

Q: And the “Behaviour: Deep Sleep” value ([1]; 12 hrs after alcohol)?
A: 0 heads

Q: And the “Behaviour: Lying Flat” value ([1]; 12 hrs after alcohol)?
A: 0 heads

Q: And the “Behaviour: Normal Walking” value ([1]; 12 hrs after alcohol)?
A: 13 heads

Q: What about the “Righting Reflex +” value ([1]; 12 hrs after alcohol) of the same compound?
A: 13 heads

Q: What about the “Righting Reflex -” value ([1]; 12 hrs after alcohol) of the same compound?
A: 0 heads

Q: And the “Behaviour: Deep Sleep” value ([1]; 18 hrs after alcohol)?
A: 0 heads

Q: What about the “Behaviour: Lying Flat” value ([1]; 18 hrs after alcohol) of the same compound?
A: 0 heads

Q: And the “Behaviour: Normal Walking” value ([1]; 18 hrs after alcohol)?
A: 13 heads

Q: And the “Righting Reflex +” value ([1]; 18 hrs after alcohol)?
A: 13 heads

Q: And the “Righting Reflex -” value ([1]; 18 hrs after alcohol)?
A: 0 heads

Q: And the “Behaviour: Deep Sleep” value ([2]; 3 hrs after alcohol)?
A: 1 heads

Q: What about the “Behaviour: Lying Flat” value ([2]; 3 hrs after alcohol) of the same compound?
A: 6 heads

Q: What about the “Behaviour: Normal Walking” value ([2]; 3 hrs after alcohol) of the same compound?
A: 4 heads

Q: And the “Righting Reflex +” value ([2]; 3 hrs after alcohol)?
A: 10 heads

Q: And the “Righting Reflex -” value ([2]; 3 hrs after alcohol)?
A: 1 heads

Q: What about the “Behaviour: Deep Sleep” value ([2]; 6 hrs after alcohol) of the same compound?
A: 1 heads

Q: What about the “Behaviour: Lying Flat” value ([2]; 6 hrs after alcohol) of the same compound?
A: 7 heads

Q: And the “Behaviour: Normal Walking” value ([2]; 6 hrs after alcohol)?
A: 3 heads

Q: And the “Righting Reflex +” value ([2]; 6 hrs after alcohol)?
A: 9 heads

Q: What about the “Righting Reflex -” value ([2]; 6 hrs after alcohol) of the same compound?
A: 2 heads

Q: What about the “Behaviour: Deep Sleep” value ([2]; 9 hrs after alcohol) of the same compound?
A: 1 heads

Q: What about the “Behaviour: Lying Flat” value ([2]; 9 hrs after alcohol) of the same compound?
A: 6 heads

Q: And the “Behaviour: Normal Walking” value ([2]; 9 hrs after alcohol)?
A: 4 heads

Q: What about the “Righting Reflex +” value ([2]; 9 hrs after alcohol) of the same compound?
A: 10 heads

Q: What about the “Righting Reflex -” value ([2]; 9 hrs after alcohol) of the same compound?
A: 1 heads

Q: And the “Behaviour: Deep Sleep” value ([2]; 12 hrs after alcohol)?
A: 0 heads

Q: And the “Behaviour: Lying Flat” value ([2]; 12 hrs after alcohol)?
A: 1 heads

Q: And the “Behaviour: Normal Walking” value ([2]; 12 hrs after alcohol)?
A: 10 heads

Q: What about the “Righting Reflex +” value ([2]; 12 hrs after alcohol) of the same compound?
A: 11 heads

Q: What about the “Righting Reflex -” value ([2]; 12 hrs after alcohol) of the same compound?
A: 0 heads

Q: What about the “Behaviour: Deep Sleep” value ([2]; 18 hrs after alcohol) of the same compound?
A: 0 heads

Q: And the “Behaviour: Lying Flat” value ([2]; 18 hrs after alcohol)?
A: 0 heads

Q: And the “Behaviour: Normal Walking” value ([2]; 18 hrs after alcohol)?
A: 11 heads

Q: What about the “Righting Reflex +” value ([2]; 18 hrs after alcohol) of the same compound?
A: 11 heads

Q: What about the “Righting Reflex -” value ([2]; 18 hrs after alcohol) of the same compound?
A: 0 heads

Q: And the “Ethanol level in Blood, Average” value ([3]; UDP-2Na 100 mg/kg p.o. in saline 30 min before ethanol 6 g/kg, 4 h 30 min after ethanol, *Confidence Limits: 98%)?
A: 1.51 ± 1.09 mg/mL

Q: What about the “Ethanol level in Blood (individual test animals No. 1-12)” value ([3]; UDP-2Na 100 mg/kg p.o. in saline 30 min before ethanol 6 g/kg, blood 4 h 30 min after ethanol) of the same compound?
A: 2.11 mg/mL and 1.77 mg/mL and 0.57 mg/mL and 0.24 mg/mL and 0.75 mg/mL and 2.10 mg/mL and 1.08 mg/mL and 1.35 mg/mL and 1.72 mg/mL and 1.50 mg/mL and 2.16 mg/mL and 2.74 mg/mL

Q: And the “alcohol level in blood in comparison with the control” value ([3]; UDP-2Na 100 mg/kg p.o., result in words)?
A: significantly lowered

Q: And the “Behavior (individual test animals No. 1-12)” value [4]?
A: normal walking; also recorded: lying flat; also recorded: deep sleep
